Assay results published in US7314726B2, “Beta secretase exosite binding peptides and methods for identifying beta secretase modulators” (Bristol-Myers Squibb Company, priority 2002, dated 2008).

Target: BACE (Homo sapiens, UniProt P56817)
Experiment: Phage ELISA of phage-displayed peptides on immobilised BACE
Assay type: binding
Parameters: The cDNA for the catalytic domain of human BACE (residues 1-460) was PCR-amplified; human IgG1 heavy chain (C, cleaved yes); thrombin cleavage site (C); made in house; host or cells: CHO DG44 cells (stably transfected, secreted)
Conditions: clones from solid phase panning at pH 7.0
Method: Two highly selected and homologous 12 mer phage peptides bound BACE specifically and reproducibly in phage-ELISA tests. Bristol-Myers Squibb fUSE5-based C4C, C6C, 5- and 15 mer libraries, and M13-based C7C libraries, and 7- and 12 mer libraries obtained from New England Biolabs, Beverly, Mass. were panned for three cycles against BACE (produced as described herein in Example 3). BACE was immobilized by coating at 0.5 μg/well in 4 wells of Dynex Immulon 4HBX plates overnight at 4° C. in 0.1M NaHCO3 buffer, pH 9.0. Panning was by standard procedures at room temperature that involved blocking wells with 2% BSA in PBS and elution with 0.1M HCL, pH 2.2. The vector NTI alignment tool and visual inspection of sequences were employed to analyze the selected peptides.
After sequencing approximately 20-50 clones from each library after three cycles of selection, we prepared essentially all possible candidate clones (39 clones in total) for phage-ELISA to obtain direct evidence for affinity to BACE. […] We therefore sequenced additional 12 mer clones to try to find additional candidate clones. […] This […] (SEQ ID NO:20) peptide is homologous to […] (SEQ ID NO:19) and consistent with the specific binding of both those peptides to BACE. The […] (SEQ ID NO:20) peptide and […] (SEQ ID NO:19) peptides were the two most efficiently recovered clones with 13 and 9 copies, respectively. […]

Sequence of BACE (P56817 46-460 limits assumed): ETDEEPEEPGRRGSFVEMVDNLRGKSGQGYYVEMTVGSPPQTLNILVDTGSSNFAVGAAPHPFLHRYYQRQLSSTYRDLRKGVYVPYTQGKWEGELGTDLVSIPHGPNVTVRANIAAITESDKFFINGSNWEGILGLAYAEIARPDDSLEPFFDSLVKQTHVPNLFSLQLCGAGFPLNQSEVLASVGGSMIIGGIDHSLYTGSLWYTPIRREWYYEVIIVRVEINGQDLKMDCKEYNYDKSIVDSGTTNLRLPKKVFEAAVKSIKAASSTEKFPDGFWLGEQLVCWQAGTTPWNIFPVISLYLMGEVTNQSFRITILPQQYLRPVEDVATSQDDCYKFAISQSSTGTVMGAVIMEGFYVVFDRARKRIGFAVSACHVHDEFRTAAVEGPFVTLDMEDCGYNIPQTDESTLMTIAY

## Ac-NLTTYPYFIPLP-OH [BMS-561871]
  phage ELISA binding to BACE: specifically bind to BACE
